Experimental data published in PubChem BioAssay (NCI).
Where “and” joins values, the source holds several entries; their conditions need not be identical. Identical values can stand only once.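 Assay format: 96-well plates, 48-hour exposure. GI50: concentration for 50% inhibition of growth. TGI denotes the concentration required for complete inhibition of growth.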

Key:
Assay in all cases: NCI tumour cell line growth inhibition, 48 h
OVCAR-5 ovarian = system: OVCAR-5 ovarian
HCT-15 colon = system: HCT-15 colon
HCC-2998 colon = system: HCC-2998 colon
DU-145 prostate = system: DU-145 prostate
SN12C renal = system: SN12C renal
SK-MEL-5 melanoma = system: SK-MEL-5 melanoma
SK-MEL-2 melanoma = system: SK-MEL-2 melanoma
HL-60(TB) leukemia = system: HL-60(TB) leukemia
OVCAR-4 ovarian = system: OVCAR-4 ovarian
NCI-H460 lung = system: NCI-H460 lung

Compound | TGI (OVCAR-5 ovarian) | GI50 (HCT-15 colon) | TGI (HCT-15 colon) | GI50 (HCC-2998 colon) | TGI (HCC-2998 colon) | TGI (DU-145 prostate) | GI50 (SN12C renal) | TGI (SN12C renal) | GI50 (SK-MEL-5 melanoma) | GI50 (SK-MEL-2 melanoma) | TGI (SK-MEL-2 melanoma) | GI50 (HL-60(TB) leukemia) | TGI (OVCAR-4 ovarian) | GI50 (NCI-H460 lung) | TGI (NCI-H460 lung) | GI50 (OVCAR-5 ovarian) | GI50 (DU-145 prostate) | TGI (SK-MEL-5 melanoma) | TGI (HL-60(TB) leukemia) | GI50 (OVCAR-4 ovarian)
O=c1cc(-c2cccc(F)c2)[nH]c2cc3c(cc12)OCO3 | > 100 µM | 0.29 µM | 12.1 µM and > 24.9 µM | 0.152 µM | 0.357 µM and 0.538 µM | 1.63 µM | 0.411 µM | 75 µM and 23.3 µM | 0.0639 µM | 0.23 µM | 2.9 µM and 23.6 µM | 0.201 µM | > 68.1 µM | 0.257 µM | 4.31 µM and 22.7 µM |  |  |  |  | 
C=CC(=O)N[C@H]1C=C(C)c2c(-c3cnc4ccccc4c3)c3c(N)ncnc3n2C1 | 93.3 µM | 23.1 µM | > 80.3 µM | 22.4 µM | 45 µM | > 100 µM | 12.9 µM | 98.2 µM | 12.5 µM | 13.4 µM | 35.2 µM | 29.8 µM | > 100 µM | 18.1 µM | 72.8 µM | 21.2 µM | 8.05 µM | 25.2 µM | > 80.4 µM | 13.5 µM
CCCCCCCCCCCCCC(=S)NCCCC[C@H](NC(=O)OCc1ccccc1)C(=O)Nc1ccccc1 | > 100 µM | 3.52 µM | > 100 µM | 5.69 µM | > 100 µM | > 100 µM | 3.81 µM | > 100 µM | 8.39 µM | 3.48 µM | 26.9 µM | 3.89 µM | > 100 µM | 4.02 µM | > 100 µM | 10.3 µM | 6.78 µM | > 100 µM | > 100 µM | 3.9 µM
O=C(NNc1nc2c(F)cccc2n2cccc12)c1cnccn1 | > 61.1 µM | 0.178 µM | > 48.2 µM | 0.867 µM | 28.6 µM | 24.9 µM | 0.602 µM | 31.7 µM | 0.864 µM | 1.4 µM | 37 µM | 0.409 µM | 11 µM | 0.331 µM | 11 µM | 1.51 µM | 0.657 µM | 4.56 µM | 4.74 µM | 0.469 µM
Fc1cccc(COc2ccc(Nc3ncncc3C#Cc3ccccc3)cc2Cl)c1 | > 25 µM | > 25 µM | > 25 µM | > 25 µM | > 25 µM | > 25 µM | > 25 µM | > 25 µM | > 25 µM | > 25 µM | > 25 µM | > 25 µM | > 25 µM | > 25 µM | > 25 µM | > 25 µM | > 25 µM | > 25 µM | > 25 µM | > 25 µM
COc1ccc(C(=S)N2CCN(c3cccc(Cl)c3)CC2)cc1 | > 100 µM | > 100 µM | > 100 µM | > 100 µM | > 100 µM | > 100 µM | > 100 µM | > 100 µM | 84.2 µM | > 100 µM | > 100 µM | > 100 µM | > 100 µM | > 100 µM | > 100 µM | > 100 µM | > 100 µM | > 100 µM | > 100 µM | > 100 µM
CCOc1ccc(S(=O)(=O)/N=C2\C=C(SCC(=O)O)C(=O)c3ccccc32)cc1 | 25.1 µM | 4.77 µM | 17.2 µM | 14.8 µM | 28.2 µM | 5.86 µM | 2.15 µM | 4.97 µM | 1.72 µM | 2.62 µM | 5.8 µM | 2.35 µM | 6.31 µM | 12.4 µM | 28.2 µM | 5.5 µM | 2.04 µM | 3.1 µM | 6.99 µM | 2.16 µM
CC(C)(C)c1cc(O)c(O)c(C(C)(C)C)c1 | 23.3 µM | 3.38 µM | 11.2 µM | 4.44 µM | 16.6 µM | 15.8 µM | 4.82 µM | 21.3 µM | 4.68 µM | 3.74 µM | 11.4 µM | 2.69 µM | 5.84 µM | 3 µM | 10 µM | 11.1 µM | 4.6 µM | 15.8 µM | 6.8 µM | 2.31 µM
COc1ccc(-c2nn(-c3cccc(Cl)c3)cc2C2CC(c3ccccc3)=NN2C(C)=O)cc1 (stereo not given) | > 100 µM | > 100 µM | > 100 µM | > 100 µM | > 100 µM | > 100 µM | 8.35 µM | > 100 µM | 30.3 µM | 4.97 µM | 22.6 µM | > 100 µM | 29.2 µM | 4.17 µM | > 100 µM | > 100 µM | 5.25 µM | > 100 µM | > 100 µM | 3.38 µM
